Test results taken from patent US9428465B2, “Acid ceramidase inhibitors and their use as medicaments” (FONDAZIONE ISTITUTO ITALIANO DI TECHNOLOGIA, priority 2012, dated 2016).

Tests used:
[1] = tested on: human colon adenocarcinoma cell line SW403; test: Ceramide levels in SW403 cells (lipid extraction, LC/MS); format: cell-based; conditions: 3 μM, 3 hrs, vs. vehicle
Procedure: Lipids were extracted using a chloroform/methanol mixture (2:1 vol/vol, 3 mL) containing internal standards. The organic phases were collected, dried under nitrogen, and dissolved in methanol/chloroform (3:1 vol/vol) for LC/MS analyses.
Ceramides were analyzed by LC/MS^n, using a 1100-LC system (Agilent Technologies) equipped with an Ion Trap XCT and interfaced with ESI (Agilent Technologies). They were separated on a Poroshell 300 SB C18 column (2.1×75 mm i.d., 5 μm; Agilent Technologies) maintained at 30° C. A linear gradient of methanol in water containing 5 mM ammonium acetate and 0.25% acetic acid (from 80% to 100% of methanol in 3 man) was applied at a flow rate of 1 mL/min. […]
Tissue-derived ceramides were identified by comparison of their LC retention times and MS^n fragmentation patterns with those of authentic standards (Avanti Polar Lipids). Extracted ion chromatograms were used to quantify myristoyl ceramide (C140, m/z 510.5>492.5>264.3), palmitoyl ceramide (C16:0, m/z 538.5>520.3>264.3), stearoyl ceramide (C18:0 m/z 566.5>548.3>264.3), lignoceroylceramide (C24:0 m/z 650.5>632.3>264.3), nervonoylceramide (C24:1 m/z 648.5>630.3>264.3) and using lauroyl ceramide standard (m/z 482.5>464.5>264.3). […]

[2] = molecular target: rat acid ceramidase (rAC) (Rattus norvegicus (Rat), UniProt Q6P7S1); test: Rat acid ceramidase (rAC) enzymatic assay, LC/MS of lauric acid; format: biochemical; conditions: rat acid ceramidase, 100 μM N-lauroyl ceramide, pH 4.5
Sequence of rat acid ceramidase (rAC) (Q6P7S1 142-394): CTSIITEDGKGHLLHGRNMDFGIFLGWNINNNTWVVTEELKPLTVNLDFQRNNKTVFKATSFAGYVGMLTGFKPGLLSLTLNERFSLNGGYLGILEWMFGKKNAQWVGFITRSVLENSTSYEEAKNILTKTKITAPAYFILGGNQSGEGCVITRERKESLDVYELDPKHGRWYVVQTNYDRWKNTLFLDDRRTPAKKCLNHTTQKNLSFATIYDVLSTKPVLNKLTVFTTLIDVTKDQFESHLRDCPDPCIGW
Sequence of rat acid ceramidase (rAC) (Q6P7S1 21-141): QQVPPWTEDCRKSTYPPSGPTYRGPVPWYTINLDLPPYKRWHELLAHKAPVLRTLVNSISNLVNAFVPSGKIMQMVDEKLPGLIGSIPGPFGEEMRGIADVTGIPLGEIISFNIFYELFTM
Procedure: A lysosomal rat acid ceramidase (rAC) protein preparation was obtained from cells stably expressing rAC resuspended in 20 mM Tris HCl (pH 7.5) with 0.32 M sucrose. Samples were sonicated and centrifuged at 800×g for 15 min at 4° C. Supernatants were then centrifuged at 12,000×g for 30 min at 4° C. Pellets were re-suspended in PBS pH 7.4 and subjected to 2 freeze-thaw cycles at −80° C. The suspension was finally centrifuged at 105,000×g for 1 hr at 4° C. and the supernatant containing rAC was then used in the enzymatic assay.
r-AC protein samples were pre-incubated with various concentrations of test compounds or vehicle control in 100 mM NaH2PO4/citrate buffer pH 4.5, 0.1% Nonidet P-40, 3 mM DTT for 30 min at 37° C. Samples were incubated with 100 μM N-lauroyl ceramide (Nu-Chek Prep, Elysian, Minn.) at 37° for 30 min. The reaction was stopped by addition of a mixture of chloroform/methanol (2:1 vol/vol) containing 1 nmol of heptadecanoic acid (HDA; NuChek Prep). The organic phases were collected, dried under nitrogen, and analyzed by LC/MS in the negative-ion mode using heptadecanoic acid (HDA) as internal standard (m/z=199 for lauric acid, m/z=269 for HDA). HDA was eluted on an XDB Eclipse C18 column isocratically at 2.2 mL/min for 1 min with a solvent mixture of 95% methanol and 5% water, both containing 0.25% acetic acid, and 5 mM ammonium acetate. The column temperature was 50° C. Electrospray ionization (ESI) was in the negative mode, capillary voltage was 4 kV, and fragmentor voltage was 100 V. Nitrogen was used as drying gas at a flow rate of 13 L/min and at a temperature of 350° C. Nebulizer pressure was set at 60 psi. We monitored [M-H]− in the selected-ion monitoring (SIM) mode using HDA as internal standard.
Inhibition of rAC activity was calculated as a reduction of lauric acid in the samples compared to vehicle controls. Median inhibitory concentration (IC50) values were calculated by non-linear regression analysis of log [concentration]/inhibition curves using. GraphPad Prism 5 (GraphPad Software, Inc., CA, USA) applying a standard slope curve fitting.

SW403 cells [3] = test: SW403 cell viability, trypan blue assay; format: cell-based, human; conditions: prolonged (72 hrs) treatment, concentration-response, FIGS. 2A and 2B
Procedure: (§1) Cells were seeded in 12- or 96-well plates in complete medium 24 hrs before treatment and then incubated for 24 hrs (single treatment) or 72 hrs (multiple treatments) with different drug concentrations in media without serum. Cell viability was then evaluated.
The trypan blue exclusion assay is based on the principle that viable cells have intact cell membrane and can therefore exclude the trypan blue dye. Cell viability was measured after 24 hrs incubation with the drug. Cells were harvested, centrifuged at 1200 rpm for 10 min and pellets re-suspended in PBS. To evaluate viability, cells were diluted 1:1 with 0.4% trypan blue dye (Sigma), incubated for 1 min and white (viable) cells were counted with a hemacytometer.

SW403 cells [4] = test: Isobolographic analysis of combined treatment of SW403 cells (ED50, trypan blue assay); format: cell-based, human
Procedure: Interaction between drugs was assessed by isobolographic analysis, based on the concept of dose-equivalence which follows from the dose effect curves of the individual drugs (Tallarida R I, Interactions between drugs and occupied receptors. Pharmacol. Ther. 2007, 113, 197-209; Tallarida R J, Raffa R B, The application of drug dose equivalence in the quantitative analysis of receptor occupation and drug combinations. Pharmacol. Ther. 2010; 127, 165-174). Specifically, the individual drugs' potency and efficacy allow calculating the expected effect of a combination of the two drugs.
In the experiment of combined treatment, isobolograms were constructed by plotting on vertical and horizontal axes the ED50 data of the single drugs measured by trypan blue assay after subcronic treatment for 72 hrs. The straight line with axial intercepts represents the isobole of additivity and allows calculating the theoretical additive dose. Synergism is indicated by an observed pair (x, y) that plots below the isobole for the specified effect, whereas sub-additivity is indicated when an observed pair (x, y) plots above the isobole.

SW403 cells [5] = test: SW403 cell viability, MTT assay; format: cell-based, human
Procedure: as §1
Alternatively, cell viability was assessed measuring mitochondrial functionality by the MIT assay, which is based on the reduction of the soluble tetrazolium salt MTT [(3-(4,5-dimethylthiazol-2-yl)-2,5-diphenyltetrazolium bromide] into insoluble formazan by mitochondria. Briefly, after treatment, cells were washed with PBS and incubated with 0.5 mg/ml, MTT for 2 hrs at room temperature, MTT reduction was quantified by absorbance at 570 nm using a UV-visible plate reader.

[6] = SW403 cells, 72 hrs, isobole of additivity, higher than the experimental values

CCCCCCNC(=O)n1cc(C(F)(F)F)c(=O)[nH]c1=O [Example 4, N-hexyl-2,4-dioxo-5-(trifluoromethyl)pyrimidine-1-carboxamide]
levels of C14:0, C16:0 and C18:0 ceramide [1]: increased
IC50 [2]: 10 nM
SW403 cell viability (trypan blue assay) (SW403 cells [3]): reduction of the viability
theoretical dose (Th) to be used with 20 nM taxol to obtain an additive effect (SW403 cells [4]; [6]): 4.9 µM
theoretical dose (Th) to be used with 300 nM 5FU to obtain an additive effect (SW403 cells [4]; [6]): 7.8 µM
interaction with taxol in reducing viability of SW403 cells (isobologram) (SW403 cells [4]; prolonged treatment, 20 nM taxol, trypan blue ED50): synergistic effect
interaction with 5-fluorouracil in reducing viability of SW403 cells (isobologram) (SW403 cells [4]; prolonged treatment, 300 nM 5FU, trypan blue ED50): synergistic effect
interaction with 5FU in reducing cell viability (MTT assay) (SW403 cells [5]; 72 hrs, compound 30 μM + 5FU 300 nM): synergistic effect
SW403 cell viability (MTT assay) (SW403 cells [5]; sub-chronic treatment 72 hrs, compounds 30 μM, 5FU 300 nM): reduced cell viability
